Values quoted from earlier work in patent US20060264384A1, “Compositions and methods for treatment for neoplasms” (priority 2005, published 2006).

## CCN(CC)C(=S)SSC(=S)N(CC)CC [Disulfiram]
  solubility in organic solvents: soluble in solvents such as alcohol, ether, acetone, and benzene
  solubility in water: barely soluble in water

## CCc1c2c(nc3ccc(OC(=O)N4CCC(N5CCCCC5)CC4)cc13)-c1cc3c(c(=O)n1C2)COC(=O)[C@]3(O)CC [Irinotecan]
  solubility in organic solvents: slightly soluble
  solubility in water: slightly soluble

## CC[C@@]1(O)C(=O)OCc2c1cc1n(c2=O)Cc2cc3c(CN(C)C)c(O)ccc3nc2-1 [Topotecan]
  solubility in water: up to 1 mg/ml
